Data: US7932405B2, “Halogenated ester derivatives of coumarins for the treatment of coagulation disorders” (Aryx Therapeutics, Inc., priority 2007, dated 2011)
Marks after values point to notes of the source that are not given here.

Assays:
[1] = target: T1, vitamin K epoxide reductase (VKER) (Bos taurus, UniProt Q6B4J2); assay: Vitamin K epoxide reductase inhibition, bovine liver microsomal preparation, residual vitamin K epoxide by HPLC; type: biochemical
T1 construct: Microsomes were prepared from fresh cow liver; from tissue; host or cells: fresh cow liver microsomes
T1 sequence (Q6B4J2 1-163): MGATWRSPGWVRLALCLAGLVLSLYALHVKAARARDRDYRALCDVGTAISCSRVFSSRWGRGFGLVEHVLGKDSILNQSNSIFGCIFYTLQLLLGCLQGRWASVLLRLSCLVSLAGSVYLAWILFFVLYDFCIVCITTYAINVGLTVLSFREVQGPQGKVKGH
Method: Compounds of the subject invention were tested against vitamin K epoxide reductase.
Briefly: increasing concentrations of compounds were incubated in the presence of vitamin K epoxide and in the presence of a bovine microsomal preparation containing vitamin K epoxide reductase. The amount of residual vitamin K epoxide at the end of the incubation period was directly proportional to the inhibitory activity of the test compounds on the enzyme.
Microsomes were prepared from fresh cow liver according to the method described in: “Purification of gamma-glutamyl carboxylase from bovine liver. Wu S M, Mutucumarana V P, and Stafford D W. Methods in Enzymology (1997) 282:346-57.”
Serial dilutions of test compounds were prepared as follows: Dissolve the test compounds to a final dilution of 10 mM either in water or in DMSO (if not soluble in water). From this mother solution, prepare 2 further dilutions by diluting it with water: one 200 μM solution and one 5 mM solution. Prepare a series of tubes as follows:
Remove 15 μL from tube 4 and add to tube 5, vortex, then remove 15 μL from tube 5 and add to tube 6, vortex, etc. . . . until 15 μL is added to tube 9. Vortex and then remove 15 μL from tube 9.
Prepare another set of 4 tubes and add 30 μL of water.
A reaction mixture consisting of 600 μL buffer (2.5M NaCl, 0.125M MOPS, pH7.5), 520 μL water, and 150 μL of 10% CHAPS was prepared. The tubes were kept on ice for 5 minutes and then 500 μL of microsomal preparation was added. The mixture was mixed by vortex and kept on ice for 10 min for sufficient solubilization. To this was added 150 μL of vitamin K epoxide solution (1.5 mg/ml in isopropanol), then again vortexed and kept on ice for 5 minutes. An aliquot (70 μL) of this reaction mix was added to each one of the series of tubes prepared as above and containing serial dilutions of test compounds in 30 μL of water. The tubes were then vortexed and then kept on ice for 5 min. To 2 of the water-containing tubes was added 500 μL of a stop reagent consisting of 5 volumes of 50 mM AgNO3 and 5 volumes of isopropanol. These 2 tubes were used to measure a zero value.
The tubes were placed in a 30 C mixer for 3 min and 5 μL of 100 mM DTT solution in water was added. The tubes were then vortexed and kept in the dark without shaking for another 20 min, at the end of which 500 μL of the stop reagent was added.
To each tube was then added 600 μL of a 100 μg/ml solution of vitamin E in hexane, the tubes were capped and then vortexed for 1 minute. The tubes were then centrifuged for 5 min at 5,000 g, and the upper layer (the hexane layer) was transferred to a series of fresh tubes. The hexane was evaporated at room temperature in the dark using a speedvac, and the resulting pellet was resuspended in 100 μL of methanol.
The amount of vitamin K epoxide in each sample was then measured using a HPLC determination method. Residual vitamin K epoxide was then plotted against test compound concentration.

[2] = Control incubation without microsomes (buffer stability); type: physicochemical; conditions: 2 μM final concentration, no microsomes; for half-life at 2 μM: buffer without microsomes (control incubation), pH 7.4, read-out: Buffer Est T½
Method: Pooled human liver microsomes were used as an in vitro model of drug metabolism. These microsomes contain both esterase and CYP450 drug metabolizing enzymes. […] Test compounds dissolved in acetonitrile:DMSO (1:99) were added to a final concentration of 2 μM. Incubations were performed at 37° C. and samples (50 μL) were collected after 5, 15, 30, 60 and 90 minutes and then were precipitated by the addition of 100 μL of acetonitrile containing Internal Standard and centrifuged at 14,000 rpm for 15 min at 4° C. Samples were analyzed by LC/MS/MS for the content of parent drug.
All of the compounds were stable.

[3] = Metabolism in pooled human liver microsomes without NADPH (esterase alone); type: in vitro ADME; conditions: human, pooled human liver microsomes without NADPH, pH 7.4, 2 μM final concentration, read-out: Esterase Est T½
Method: (§1) Pooled human liver microsomes were used as an in vitro model of drug metabolism. These microsomes contain both esterase and CYP450 drug metabolizing enzymes. Pooled human microsomes were suspended in Tris buffer (50 mM, pH 7.4) at a final concentration of 1 mg/mL of microsomal protein. Test compounds dissolved in acetonitrile:DMSO (1:99) were added to a final concentration of 2 μM. Incubations were performed at 37° C. and samples (50 μL) were collected after 5, 15, 30, 60 and 90 minutes and then were precipitated by the addition of 100 μL of acetonitrile containing Internal Standard and centrifuged at 14,000 rpm for 15 min at 4° C. Samples were analyzed by LC/MS/MS for the content of parent drug.
(§2) To determine the role of CYP450 in the metabolism, incubations were run either with or without an NADPH regenerating system−NADPH is an obligate cofactor for CYP450 enzymes. Incubations that included NADPH cofactor represent the total metabolism by CYP450+ esterase. […] Thus, when the relative decline of parent drug observed is greater in the presence of NADPH, the metabolism is CYP450-mediated. When the relative decline is equivalent in the presence and absence of cofactor the metabolism is esterase mediated.

[4] = tested on: pooled human liver microsomes (esterase); assay: as above; type: in vitro ADME; conditions: 2 μM final concentration
Method: as §1, §2

[5] = Metabolism in pooled human liver microsomes with NADPH (CYP450 + esterase); type: in vitro ADME; conditions: human, pooled human liver microsomes with NADPH regenerating system, pH 7.4, 2 μM final concentration, read-out: CYP + Esterase Est T½
[6] = tested on: pooled human liver microsomes (CYP450 + esterase); assay: as above; type: in vitro ADME; conditions: 2 μM final concentration
[7] = Broad cellular and biochemical receptor screening assay; conditions: concentrations up to 10 μM
[8] = target: T2, human IKr (hERG) (Homo sapiens, UniProt Q12809); assay: Whole-cell patch-clamp recording of IKr in stably transfected HEK-293 cells expressing the hERG gene; type: cell-based
T2 construct: expressed in transfected cells; host or cells: HEK-293, stably transfected
T2 sequence (Q12809 whole entry): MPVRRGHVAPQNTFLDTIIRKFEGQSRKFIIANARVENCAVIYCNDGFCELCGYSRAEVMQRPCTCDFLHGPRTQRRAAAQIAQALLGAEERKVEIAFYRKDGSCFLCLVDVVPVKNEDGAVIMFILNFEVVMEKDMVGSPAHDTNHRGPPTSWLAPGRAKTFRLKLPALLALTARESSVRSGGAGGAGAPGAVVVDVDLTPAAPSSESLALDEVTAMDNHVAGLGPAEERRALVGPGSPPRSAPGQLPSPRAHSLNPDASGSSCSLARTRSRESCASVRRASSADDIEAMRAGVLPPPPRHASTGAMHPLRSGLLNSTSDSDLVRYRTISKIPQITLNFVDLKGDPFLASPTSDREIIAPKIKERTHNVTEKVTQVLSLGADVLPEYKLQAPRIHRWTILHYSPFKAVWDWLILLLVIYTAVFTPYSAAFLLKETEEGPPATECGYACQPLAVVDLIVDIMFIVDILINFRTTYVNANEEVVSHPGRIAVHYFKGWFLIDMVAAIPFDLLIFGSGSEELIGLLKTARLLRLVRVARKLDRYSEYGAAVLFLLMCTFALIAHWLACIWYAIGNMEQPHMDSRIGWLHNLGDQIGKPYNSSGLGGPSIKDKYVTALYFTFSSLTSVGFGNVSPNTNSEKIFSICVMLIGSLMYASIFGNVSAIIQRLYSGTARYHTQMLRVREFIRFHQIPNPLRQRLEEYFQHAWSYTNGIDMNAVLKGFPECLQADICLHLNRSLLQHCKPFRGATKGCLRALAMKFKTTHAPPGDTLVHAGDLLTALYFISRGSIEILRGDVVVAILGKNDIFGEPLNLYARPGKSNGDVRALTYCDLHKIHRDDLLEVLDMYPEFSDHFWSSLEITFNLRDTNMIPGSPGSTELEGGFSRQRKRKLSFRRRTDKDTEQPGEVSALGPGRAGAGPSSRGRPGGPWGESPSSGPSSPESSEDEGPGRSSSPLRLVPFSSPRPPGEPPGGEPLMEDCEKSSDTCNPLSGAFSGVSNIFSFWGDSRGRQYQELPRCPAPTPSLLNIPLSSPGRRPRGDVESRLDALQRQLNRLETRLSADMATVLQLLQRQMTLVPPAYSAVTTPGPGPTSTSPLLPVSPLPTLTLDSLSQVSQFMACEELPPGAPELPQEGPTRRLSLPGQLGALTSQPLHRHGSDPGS
Method: Electrophysiological recordings of IKr in stably transfected HEK-293 cells were made in the whole cell configuration of the patch-clamp technique (Hamill et al, 1981) using an Axopatch 200B amplifier (Axon Instruments, Foster City, Calif.). Patch microelectrodes were pulled from 1.5-mm borosilicate glass tubing using a two-stage vertical pipette puller (Narishige, East Meadow, N.Y.). […] HEK-293 cells were plated in 35 mm plastic cell and tissue culture dishes for 2-3 days. For application of drug-containing solutions to cells, the SF-77B system (Warner Instrument Corp, Hamden, Conn.) was used. Solution exchanges were completed within 20 ms. Current data were digitized online using a DigiData 1200A analog-to-digital board (Axon Instruments) and stored on the hard disc of an IBM compatible Pentium computer (GP7-600 MHz, Gateway Computer, Sioux City, N. Dak.). […]
The effect of warfarin, 2,2,2-trifluoro-1-methyl-1-(trifluoromethyl)ethyl 4-[(4-hydroxy-2-oxo-2H-chromen-3-yl)methyl]benzoate and its corresponding acid metabolite, 4-[(4-hydroxy-2-oxo-2H-chromen-3-yl)methyl]benzoic acid on IKr was studied in a stably transfected HEK-293 cell line using a two-pulse protocol. […] Tail IKr amplitude was measured as the difference between the peak current and baseline current at −50 mV in control and in the presence of ATI-compounds when steady-state block was obtained.

Compound	IC50 [1] [µM]	Buffer % Stability at 90 min [2] [%]	half-life at 2 μM [2] [h]	half-life at 2 μM [3] [h]	Esterase % Stability at 90 min [4] [%]	half-life at 2 μM [5] [h]	CYP + Esterase % Stability at 90 min [6]	activity in broad cellular and biochemical receptor screening [7]	IC50 [8] [µM]	Esterase Est T½ [4] [h]	CYP + Esterase Est T½ [6] [h]
CC(OC(=O)c1ccc(Cc2c(O)c3ccccc3oc2=O)cc1)C(F)(F)C(F)(F)F (racemic)	3.38	108	> 1.5	> 1.5	70	> 1.5	69%	–	–	–	–
CC(OC(=O)c1ccc(Cc2c(O)c3ccccc3oc2=O)cc1)(C(F)(F)F)C(F)(F)F [2,2,2-trifluoro-1-methyl-1-(trifluoromethyl)ethyl 4-[(4-hydroxy-2-oxo-2H-chromen-3-yl)methyl]benzoate]	–	–	–	–	–	–	–	Nor did either compound exhibit significant activity	> 100	–	–
O=C(O)c1ccc(Cc2c(O)c3ccccc3oc2=O)cc1 [4-[(4-hydroxy-2-oxo-2H-chromen-3-yl)methyl]benzoic acid]	–	–	–	–	–	–	–	Nor did either compound exhibit significant activity	> 1000	–	–
CC(=O)CC(c1ccccc1)c1c(O)c2ccccc2oc1=O (stereo not shown) [Warfarin, reference compound]	3 ± 0.8	–	–	–	–	–	–	–	–	–	–
O=C(O)c1ccc(Cc2c(O)c3ccccc3oc2=O)cc1 [drawing 28]	> 30	99	> 1.5	–	–	> 1.5	101%	–	–	–	–
CC(OC(=O)c1ccc(Cc2c(O)c3ccccc3oc2=O)cc1)(C(F)(F)F)C(F)(F)F [drawing 30]	5.07	92	> 1.5	> 1.5	96	> 1.5	90%** (>90 min)	–	–	–	–
CC(OC(=O)c1ccc(Cc2c(O)c3ccccc3oc2=O)cc1)C(F)(F)C(F)(F)F (stereo not shown) [drawing 31]	4.02	123	> 1.5	–	86	–	70%	–	–	> 1.5	> 1.5
CC(OC(=O)c1ccc(Cc2c(O)c3ccccc3oc2=O)cc1)C(F)(F)C(F)(F)F (stereo not shown) [drawing 32]	4.15	113	–	–	27	–	24%	–	–	~0.5	~0.5
